For 22 compounds, IC50 results are on record in US20260250250A1, “3-(SULPHONYL OR SULFONIMIDOYL)PROP-2-EN-1-YL]-2-OXO-1,2-DIHYDROPYRIDINE-3-CARBOXAMIDE DERIVATIVES” (Flinder Therapeutics B.V., priority 2022, published 2026).

Structures are written as SMILES.

The first test has as its target T1, human E3 ubiquitin-protein ligase RNF31 (HOIP) (Homo sapiens, UniProt Q96EP0).
T1 sequence (Q96EP0 695-1072 limits assumed): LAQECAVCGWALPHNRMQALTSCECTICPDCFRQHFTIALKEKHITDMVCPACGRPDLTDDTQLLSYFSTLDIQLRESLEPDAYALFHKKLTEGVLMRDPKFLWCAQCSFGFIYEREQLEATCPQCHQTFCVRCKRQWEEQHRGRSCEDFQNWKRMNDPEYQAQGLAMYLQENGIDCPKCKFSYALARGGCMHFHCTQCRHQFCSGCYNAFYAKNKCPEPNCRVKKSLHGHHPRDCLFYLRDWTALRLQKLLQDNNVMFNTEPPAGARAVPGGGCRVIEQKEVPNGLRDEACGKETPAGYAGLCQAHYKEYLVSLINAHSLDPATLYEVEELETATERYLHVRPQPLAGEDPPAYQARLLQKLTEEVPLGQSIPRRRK
In words: Cell-free HTRF-based HOIP inhibition assay. In kind it is biochemical.
Settings: not given
Here is the method: This assay was performed in the following steps: • a) synthesis of recombinant fragment of human E3 ubiquitin-protein ligase RNF31 (HOIP), expressed with purity >90% in E. coli system (the protein was prepared as 1 mg/mL stock in a standard formulation); • b) incubation of the compounds in a typical concentration range: 100-0.005 μM, at a final DMSO conc. 1% with a mixture of HOIP and ubiquitin activating enzyme E1 at 25° C., for 1 h at 25° C.; • c) followed by addition of a ubiquitination solution including E2 and substrates (the reaction proceeds for 2.5 h at 25° C.); and • d) HTRF detection was performed using a PHERAstar FSX (BMG Labtech) plate reader (excitation at 337 nm, dual emissions at 665 and 620 nm).
In general terms: TR-FRET usually uses a lanthanide donor and a delayed reading to cut background.
Regarding `CC(=O)N1CCc2[nH]c(=O)c(C(=O)NC/C=C/S(=O)(=O)c3ccccc3)cc2C1` [Example 13, 6-acetyl-N-[(2E)-3-(benzenesulfonyl)prop-2-en-1-yl]-2-oxo-1,2,5,6,7,8-hexahydro-1,6-naphthyridine-3-carboxamide], the IC50 (commonly the concentration that inhibits the measured activity by half) is at most 10 µM.
Regarding `CC(/C=C/S(=O)(=O)c1ccccc1)NC(=O)c1cc2c([nH]c1=O)CCCC2` (centres unmarked) [Example 14, N-[(3E)-4-(benzenesulfonyl)but-3-en-2-yl]-2-oxo-1,2,5,6,7,8-hexahydroquinoline-3-carboxamide], the IC50 was at most 100 µM.
`CS(=O)(=O)/C=C/CNC(=O)c1cc2c([nH]c1=O)CCCC2` [Example 15, N-[(2E)-3-methanesulfonylprop-2-en-1-yl]-2-oxo-1,2,5,6,7,8-hexahydroquinoline-3-carboxamide] registered a half-maximal inhibitory concentration (IC50) of at most 10 µM.
In the case of `O=C(NC/C=C/S(=O)(=O)C1CCCC1)c1cc2c([nH]c1=O)CCCC2` [Example 17, N-[(2E)-3-(cyclopentanesulfonyl)prop-2-en-1-yl]-2-oxo-1,2,5,6,7,8-hexahydroquinoline-3-carboxamide], the IC50 was at most 10 µM.
As for `CC(C)S(=O)(=O)/C=C/CNC(=O)c1cc2c([nH]c1=O)CCCC2` [Example 18, 2-oxo-N-[(2E)-3-(propane-2-sulfonyl)prop-2-en-1-yl]-1,2,5,6,7,8-hexahydroquinoline-3-carboxamide], the IC50 is at most 10 µM.
`CC(C)S(=O)(=O)/C=C\CNC(=O)c1cc2c([nH]c1=O)CCCC2` [Example 20, 2-oxo-N-[(2Z)-3-(propane-2-sulfonyl)prop-2-en-1-yl]-1,2,5,6,7,8-hexahydroquinoline-3-carboxamide] returned an IC50 of at most 100 µM.
The same measure, in the same setting: as for `CC(C)(C)S(=O)(=O)/C=C/CNC(=O)c1cc2c([nH]c1=O)CCCC2` [Example 23, N-[(2E)-3-(2-methylpropane-2-sulfonyl)prop-2-en-1-yl]-2-oxo-1,2,5,6,7,8-hexahydroquinoline-3-carboxamide], the figure is at most 100 µM; as for `COc1ccc(S(=O)(=O)/C=C/CNC(=O)c2cc3c([nH]c2=O)CCCCC3)cc1F` [Example 37, N-[(2E)-3-(3-fluoro-4-methoxybenzenesulfonyl)prop-2-en-1-yl]-2-oxo-1H,2H,5H,6H,7H,8H,9H-cyclohepta[b]pyridine-3-carboxamide], at most 10 µM.
The compound `O=C(NC/C=C/S(=O)(=O)c1ccccc1)c1cc2c([nH]c1=O)CCN(C(=O)C1CC(F)(F)C1)C2` [Example 102, N-[(2E)-3-(benzenesulfonyl)prop-2-en-1-yl]-6-(3,3-difluorocyclobutanecarbonyl)-2-oxo-1,2,5,6,7,8-hexahydro-1,6-naphthyridine-3-carboxamide] came in with a 50% inhibitory concentration (IC50) of at most 10 µM.
`COCCC(=O)N1CCc2[nH]c(=O)c(C(=O)NC/C=C/S(=O)(=O)c3ccccc3)cc2C1` [Example 105, N-[(2E)-3-(benzenesulfonyl)prop-2-en-1-yl]-6-(3-methoxypropanoyl)-2-oxo-1,2,5,6,7,8-hexahydro-1,6-naphthyridine-3-carboxamide] displayed an IC50 of at most 1 µM.
As for `O=C(NC/C=C/S(=O)(=O)c1ccccc1)c1cc2c([nH]c1=O)CCN(C(=O)CC13CC4CC(CC(C4)C1)C3)C2` [Example 106, 6-[2-(adamantan-1-yl)acetyl]-N-[(2E)-3-(benzenesulfonyl)prop-2-en-1-yl]-2-oxo-1,2,5,6,7,8-hexahydro-1,6-naphthyridine-3-carboxamide], the IC50 is at most 1 µM.
The compound `O=C(NC/C=C/S(=O)(=O)c1ccccc1)c1cc2c([nH]c1=O)CCN(C(=O)C1CCC(F)(F)CC1)C2` [Example 108, N-[(2E)-3-(benzenesulfonyl)prop-2-en-1-yl]-6-(4,4-difluorocyclohexanecarbonyl)-2-oxo-1,2,5,6,7,8-hexahydro-1,6-naphthyridine-3-carboxamide] yielded an IC50 of at most 10 µM.
Take `N#CC1(C(=O)N2CCc3[nH]c(=O)c(C(=O)NC/C=C/S(=O)(=O)c4ccccc4)cc3C2)CCC1` [Example 111, N-[(2E)-3-(benzenesulfonyl)prop-2-en-1-yl]-6-(1-cyanocyclobutanecarbonyl)-2-oxo-1,2,5,6,7,8-hexahydro-1,6-naphthyridine-3-carboxamide]: the half-inhibitory concentration (IC50) was at most 10 µM.
In the case of `O=C(NC/C=C/S(=O)(=O)c1ccccc1)c1cc2c([nH]c1=O)CCN(C(=O)C1CCN(c3ccccc3)C1)C2` (centres unmarked) [Example 118, N-[(2E)-3-(benzenesulfonyl)prop-2-en-1-yl]-2-oxo-6-(1-phenylpyrrolidine-3-carbonyl)-1,2,5,6,7,8-hexahydro-1,6-naphthyridine-3-carboxamide], the IC50 is at most 1 µM.
Take `COC(C)(C)CC(=O)N1CCc2[nH]c(=O)c(C(=O)NC/C=C/S(=O)(=O)c3ccccc3)cc2C1` [Example 124, N-[(2E)-3-(benzenesulfonyl)prop-2-en-1-yl]-6-(3-methoxy-3-methylbutanoyl)-2-oxo-1,2,5,6,7,8-hexahydro-1,6-naphthyridine-3-carboxamide]: the IC50 is at most 10 µM.
In turn, `O=C(NC/C=C/S(=O)(=O)c1ccccc1Cl)c1cc(-c2ccccc2)c[nH]c1=O` [Example 129, N-[(2E)-3-(2-chlorobenzenesulfonyl)prop-2-en-1-yl]-2-oxo-5-phenyl-1,2-dihydropyridine-3-carboxamide] had a concentration for half-maximal inhibition (IC50) of at most 1 µM.
In the case of `O=C(NC/C=C/S(=O)(=O)c1ccc(Cl)cc1)c1cc(-c2ccccc2)c[nH]c1=O` [Example 130, N-[(2E)-3-(4-chlorobenzenesulfonyl)prop-2-en-1-yl]-2-oxo-5-phenyl-1,2-dihydropyridine-3-carboxamide], the half-inhibitory concentration (IC50) was at most 10 µM.
The compound `N=S(=O)(/C=C/CNC(=O)c1cc2c([nH]c1=O)CCCC2)c1ccc(C(F)(F)F)cc1` (centres unmarked) [Example 154, N-[(2E)-3-[imino(oxo)[4-(trifluoromethyl)phenyl]-λ^6-sulfanyl]prop-2-en-1-yl]-2-oxo-1,2,5,6,7,8-hexahydroquinoline-3-carboxamide] yielded an IC50 of at most 0.1 µM.
Regarding `COc1ccc(S(=N)(=O)/C=C/CNC(=O)c2cc3c([nH]c2=O)C(C)(C)CCC3)cc1F` (centres unmarked) [Example 155, N-[(2E)-3-[(3-fluoro-4-methoxyphenyl)(imino)oxo-λ^6-sulfanyl]prop-2-en-1-yl]-8,8-dimethyl-2-oxo-1,2,5,6,7,8-hexahydroquinoline-3-carboxamide], the IC50 is at most 10 µM.
Consider `N=S(=O)(/C=C/CNC(=O)c1cc2c([nH]c1=O)CCCC2)Cc1ccccc1` (centres unmarked) [Example 157, N-[(2E)-3-[benzyl(imino)oxo-λ^6-sulfanyl]prop-2-en-1-yl]-2-oxo-1,2,5,6,7,8-hexahydroquinoline-3-carboxamide], for which the IC50 is at most 10 µM.
`N=S(=O)(/C=C/CNC(=O)c1cc2c([nH]c1=O)CCCC2)c1ccc(N2CCCCC2=O)cc1` (centres unmarked) [Example 176, N-[(2E)-3-[imino(oxo)[4-(2-oxopiperidin-1-yl)phenyl]-λ^6-sulfanyl]prop-2-en-1-yl]-2-oxo-1,2,5,6,7,8-hexahydroquinoline-3-carboxamide] displayed an IC50 of at most 1 µM.

Another test has as its system bladder carcinoma RT4 cell line. In words: TNF-α-induced cytotoxicity assay (CellTiter-Glo viability). It counts as cell-based. To be noted: Homo sapiens, RT-4, 72 h. The protocol:
A viability assay, using bladder carcinoma RT4 cell line, was used for identifying the potential inhibitory effect of tested compounds on HOIP activity. The viability was determined by CellTiter-Glo Luminescent Cell Viability Assay (G7571, Promega) which measures the ability of generating a luminescent signal proportional to the amount of ATP present in living cells. The assay consists of a few steps: • a) the cells were routinely sub cultivated twice a week with standard complete growth medium composition; • b) cells were preparated for the assay by creating a cell suspension at the density of 0.05 mln cells/mL and dispensed into plates (ViewPlate-384, PerkinElmer) resulting in 1000 cells/well; • c) cells were stimulated with 1.25 ng/mL TNFα and with compounds and incubated for 72 h at 37° C. in the atmosphere with 5% CO2; and • d) for detection cytotoxicity was measured with CellTiter-Glo® Luminescent Cell Viability Assay based on the method described by the manufacturer.
As for `O=C(NC/C=C/S(=O)(=O)c1ccccc1)c1cc2c([nH]c1=O)CCN(C(=O)CC13CC4CC(CC(C4)C1)C3)C2` [Example 106, 6-[2-(adamantan-1-yl)acetyl]-N-[(2E)-3-(benzenesulfonyl)prop-2-en-1-yl]-2-oxo-1,2,5,6,7,8-hexahydro-1,6-naphthyridine-3-carboxamide], the IC50 was at most 10 µM.
`O=C(NC/C=C/S(=O)(=O)c1ccccc1Cl)c1cc(-c2ccccc2)c[nH]c1=O` [Example 129, N-[(2E)-3-(2-chlorobenzenesulfonyl)prop-2-en-1-yl]-2-oxo-5-phenyl-1,2-dihydropyridine-3-carboxamide] came in with an IC50 of at most 10 µM.
On to `N=S(=O)(/C=C/CNC(=O)c1cc2c([nH]c1=O)CCCC2)c1ccc(C(F)(F)F)cc1` (centres unmarked) [Example 154, N-[(2E)-3-[imino(oxo)[4-(trifluoromethyl)phenyl]-λ^6-sulfanyl]prop-2-en-1-yl]-2-oxo-1,2,5,6,7,8-hexahydroquinoline-3-carboxamide], for which the IC50 is at most 1 µM.
In turn, `COc1ccc(S(=N)(=O)/C=C/CNC(=O)c2cc3c([nH]c2=O)C(C)(C)CCC3)cc1F` (centres unmarked) [Example 155, N-[(2E)-3-[(3-fluoro-4-methoxyphenyl)(imino)oxo-λ^6-sulfanyl]prop-2-en-1-yl]-8,8-dimethyl-2-oxo-1,2,5,6,7,8-hexahydroquinoline-3-carboxamide] came in with an IC50 of at most 10 µM.
With `N=S(=O)(/C=C/CNC(=O)c1cc2c([nH]c1=O)CCCC2)c1ccc(N2CCCCC2)cc1` (centres unmarked) [Example 161, N-[(2E)-3-[imino(oxo)[4-(piperidin-1-yl)phenyl]-λ^6-sulfanyl]prop-2-en-1-yl]-2-oxo-1,2,5,6,7,8-hexahydroquinoline-3-carboxamide], the IC50 is at most 1 µM.
